Data set [1] is described as follows: Solubility in solvents pre-saturated with aqueous buffer at 55° C. Format: physicochemical.
The subject of data set [2] is Melibiase in the form of pelletised cells of Mortierella vinacea var raffinoseutilizer (ATCC 20034). The experiment in a line: Hydrolysis of TCR to sucralose by melibiase pellets in aqueous buffer. It is filed as biochemical. To be noted: for TCR hydrolysed: 55° C., pH 5.0, 1% (w/v) TCR. The procedure: The tetrachlorogalactoraffinose of Example 1 (20 mg) was placed in a screw-top bottle together with 0.1M-citrate-phosphate buffer (pH 5.0) (2 ml) to give a 1% (w/v) solution. This level of water was maintained during the following incubation period by addition of more water when required.
Melibiase in the form of pelletised cells of Mortierella vinacea var raffinoseutilizer (ATCC 20034) (supplied by Hokkaido Sugar Co, Japan) was added (10 mg) and the mixture was incubated at 55° C. for up to 100 hours. The degree of hydrolysis was followed periodically by t.l.c. analysis of withdrawn 250 μl aliquots eluted with ethyl acetate:ethanol:water (45:5:1) or by hplc on a Waters Dextropak Cl8 reverse phase column eluted by acetonitrile 20% (v/v) and products measured using a refractive index detector. The result is plotted in FIG. 1. It was found, for example, that about 53% had been hydrolysed after 48 hours and about 70% after 90 hours. The products were separated by chromatography and, in addition to sucralose, the presence of 6-chlorogalactose and TCR was detected. TCR can be used at up to 15% (w/v) in this system.

The subject of data set [3] is α-Galactosidase in the form of pelletized cells of M. vinacea var raffinoseutilizer (ATCC 20034). The experiment in a line: Hydrolysis of TCR to sucralose in organic media. To be noted: for Conversion of TCR into sucralose: 24 hours, 20 mM TCR, 55° C. It is filed as biochemical. The procedure:
The TCR of Example 1 (23 mg) was placed in a 5 ml screw-top vial and 2 ml of an organic solvent which had been pre-saturated with aqueous buffer (sodium acetate, 50 mM, pH 5.0) was added to give a 20 mM (1.15% w/v) solution. α-Galactosidase in the form of pelletized cells of M. vinacea var raffinoseutilizer (ATCC 20034) was added (100 mg) to each vial and the reactions were initiated by adding 1% v/v aqueous buffer, vortexing for 30 seconds, and placing the vial in a water-bath shaker at 55° C. and 100 rpm. Periodically, aliquots were removed and 25 μl were injected into an Hplc system fitted with a reverse phase (Waters Dextropak C18) column, using 20% aqueous acetonitrile as eluant, to measure the sucralose produced and the residual TCR. In the figure the progress of the hydrolysis of TCR into sucralose with time is plotted for aqueous buffer (curve 1) and for three solvents, methyl isobutyl ketone (2), ethyl acetate (3) and n-butanol (4). The hydrolysis reaction in methyl isobutyl ketone and in aqueous buffer were similar. Lower rates and conversions were obtained in ethyl acetate and n-butanol, respectively. In all cases, greater than 50% conversion in 24 hours was observed, with 70% conversions in aqueous buffer and methyl isobutyl ketone.
The reason that the time-course for TCR hydrolysis in ethyl acetate was lower than that in aqueous buffer at 20 mM TCR was due to the higher Km of TCR in ethyl acetate and not due to a lower catalytic activity. When 50 mM TCR was used, the rates and conversions of TCR hydrolysis in ethyl acetate were similar to those in aqueous buffer.

Data set [4] deals with α-galactosidase of Absidia griseola. In words: TCR hydrolysis by cell debris of α-galactosidase organisms. It is filed as biochemical. The procedure:
(§1) Organisms reported to have an α-galactosidase activity were obtained from the ATCC. They were grown in 500 ml shake flasks containing 100 ml of a mineral salts medium (Jayasuria, 1955 Journal of General Microbiology 12 419-428) containing 1 g/l yeast extract plus 5 g/l raffinose at 30° C. Cells were collected by centrifugation (5000 rev/min for 10 min) in the late exponential phase of growth, resuspended in 5 times their volume of citrate-phosphate buffer pH 5.0, and maintained at 0° C. in an ice bath and were disrupted by 3×20 second bursts in a MSE sonicator (Dawe Soniprobe Type 1130A) at maximum output. The resulting suspension was centrifuged (17,000 rev/min) for 30 minutes and both debris and supernatant assayed for α-galactosidase activity in units per g. dry weight of cell debris using p-nitrophenyl α-D-galactopyranoside (Sigma). Virtually no enzyme activity was detected in the supernatant. Cultures which were positive were then tested for TCR hydrolysis as in Example 4 and the results given in mg sucralose per g dry weight of cell debris per hour (for 70% conversion).

In data set [5] the test system is α-galactosidase of Aspergillus awamori. The description is as above. Format: biochemical. To be noted: Aspergillus awamori ATCC 44733, for 70% conversion. The procedure:
as §1

Data set [6] relates to α-galactosidase of Aspergillus niger. The data set is described as above. Format: biochemical. The note with it: Aspergillus niger ATCC 36220, for 70% conversion. The procedure: as §1
Data set [7] concerns α-galactosidase of Circinella muscae. The description is as above. Format: biochemical. The procedure: as §1
The test system of data set [8] is α-galactosidase of Mortierella vinacea. The description is as above. It is filed as biochemical. The procedure:
as §1

Data set [9] deals with α-galactosidase of Saccharomyces uvarum. The description is as above. Format: biochemical. To be noted: Saccharomyces uvarum ATCC 42367, for 70% conversion. The procedure: as §1
The test system of data set [10] is α-galactosidase of Talaromyces thermophilus. The data set is described as above. It is filed as biochemical. The note with it: Talaromyces thermophilus ATCC 16461, for 70% conversion. The procedure:
as §1

Data set [11] in a line: Stability of sucralose under the enzyme treatment conditions. Format: physicochemical. To be noted: about 55° C., pH 5.0. The procedure: In both aqueous and organic systems, the treatment should naturally be at the optimum temperature and pH for the enzyme which, for the M. vinacea melibiase is about 55° C. and pH 4.5-5.5. In water-saturated organic solvents this refers to the pH of the aqueous buffer. At this temperature and at a pH of 5.0, we find that the sucralose produced is not degraded.

The conditions of data set [12]: sweeter than sucrose; cited from earlier work.
For data set [13] the following is noted: cited from earlier work.
[14] abbreviates: organic solvent or mixture, ethyl acetate pre-saturated with aqueous buffer, 55° C.
Where [15] appears, read: organic solvent or mixture, methyl isobutyl ketone pre-saturated with aqueous buffer, 55° C.
Setting [16] is: organic solvent or mixture, n-butanol pre-saturated with aqueous buffer, 55° C.
[17] abbreviates: organic solvent or mixture, n-octanol pre-saturated with aqueous buffer, 55° C.
Where [18] appears, read: organic solvent or mixture, nitrobenzene pre-saturated with aqueous buffer, 55° C.

Values after ≈ are worked out from the molar mass of the structure shown.

The text below walks through data of patent US4826962A, “Tetrachlororaffinose and its use in the preparation of sucralose” (Tate & Lyle Public Limited Company, priority 1985, dated 1989).

One may read the solubility as the dissolved amount per volume that the medium holds. One may read the Km as the substrate concentration at which the rate is half of its maximum. As to `OC1C(CCl)OC(OCC2OC(OC3(CCl)OC(CCl)C(O)C3O)C(O)C(O)C2Cl)C(O)C1O` (centres unmarked) [TCR, 4,1',6',6"-tetrachloro-4,1',6',6"-tetradeoxygalactoraffinose], the solubility is 150 mg/mL (≈ 259 mM) in data set [1] (aqueous buffer); above 500 mg/mL in [1] (setting [14]); above 500 mg/mL in data set [1] (organic solvent or mixture, hydrophilic water-immiscible solvents (ethyl acetate, n-butanol, methyl isobutyl ketone)); below 50 mg/mL in data set [1] (organic solvent or mixture, hydrophobic water-immiscible solvents (e.g. n-octanol, nitrobenzene, butyronitrile)); above 500 mg/mL in data set [1] (setting [15]); above 500 mg/mL in [1] (setting [16]). Further, the solubility in [1] (setting [17]) was 50 mg/mL (≈ 86.5 mM); in [1] (setting [18]) it was below 20 mg/mL; in [1] (water (aqueous buffer), 55° C.), 150 mg/mL (≈ 259 mM). Besides, in data set [2] (M. vinacea melibiase (Hokkaido Sugar Co.)), the “Rate of reaction on TCR relative to raffinose” value is “only a few percent of the rate on raffinose itself”. Moreover, the TCR hydrolysed result in [2] (after 48 hours) is recorded as “about 53%”; in data set [2] (after 90 hours) it was “about 70%”. Also, the Kcat is 52.5 mg per g enzyme per hour in [2] (aqueous solution) and 56.3 mg sucralose/g pellets/h in data set [3] (ethyl acetate). The Km is 5.8 mM in data set [2] (aqueous solution, read-out: Michaelis constant (Km)) and 16.4 mM in data set [3] (ethyl acetate). Further, the “Conversion of TCR into sucralose” value is given as 70% in data set [3] (aqueous buffer), “greater than 50%” in data set [3] (ethyl acetate), 70% in data set [3] (methyl isobutyl ketone) and “greater than 50%” in data set [3] (n-butanol). In addition, the “TCR hydrolysis in highly water-miscible solvents” value in [3] (dioxane, acetone, methanol, THF, even with 30% v/v aqueous buffer) is “unable to support hydrolysis”. Moreover, the “TCR Hydrolysis” value in data set [4] (Absidia griseola ATCC 20430, for 70% conversion) is listed as 0 mg sucralose per g dry weight; in [4] (Absidia griseola ATCC 20431, for 70% conversion), < 0.2 mg sucralose per g dry weight; in data set [4] (Absidia griseola ATCC 22618, for 70% conversion), 0 mg sucralose per g dry weight; in data set [5], 0 mg sucralose per g dry weight; in [6], 0.49 mg sucralose per g dry weight; in data set [7] (Circinella muscae ATCC 16008, for 70% conversion), 1.12 mg sucralose per g dry weight. For the same molecule, the “TCR Hydrolysis” value in [7] (Circinella muscae ATCC 20394, for 70% conversion) is < 0.2 mg sucralose per g dry weight; in data set [7] (Circinella muscae ATCC 22337, for 70% conversion), 0 mg sucralose per g dry weight; in [8] (Mortierella vinacea ATCC 20034, for 70% conversion) it was 1.09 mg sucralose per g dry weight; in data set [8] (Mortierella vinacea ATCC 34195, for 70% conversion), 1.33 mg sucralose per g dry weight; in data set [8] (Mortierella vinacea ATCC 42425, for 70% conversion) it was 1.06 mg sucralose per g dry weight; in data set [8] (Mortierella vinacea Hokkaido (pellets), for 70% conversion) it was 4.3 mg sucralose per g dry weight. For the same molecule, the “TCR Hydrolysis” value in data set [9] and in [10] was 0 mg sucralose per g dry weight throughout.
`OC[C@H]1O[C@H](O[C@]2(CCl)O[C@H](CCl)[C@@H](O)[C@@H]2O)[C@H](O)[C@@H](O)[C@H]1Cl` [sucralose, 4,1',6'-trichloro-4,1',6'-trideoxygalactosucrose]: the solubility in data set [1] (setting [14]) was 57 mg/mL (≈ 143 mM); in data set [1] (setting [15]), 60 mg/mL (≈ 151 mM); in [1] (setting [16]), above 500 mg/mL; in [1] (setting [17]), below 10 mg/mL; in [1] (setting [18]), below 10 mg/mL; in [1] (water (aqueous buffer), 55° C.), 300 mg/mL (≈ 754 mM). In addition, the “Degradation of sucralose produced” value in data set [11] is reported as “not degraded”. In addition, the “Sweetness relative to sucrose” value in [12] was “about 600 X”. Moreover, in data set [13], the Degradation in vivo entry is reported as “not degraded in vivo”.
